In patent US20220395472A1 (Dermavant Sciences GmbH, priority 2021, published 2022):

Test system: adults with plaque psoriasis
Assay: Long-term open-label extension study (PSOARING 3): Physician Global Assessment (PGA), treatment episodes, treatment success, remittive effect
Assay type: in vivo, human
Description: This extension study consisted of up to 40 weeks of treatment and a 4 week, safety follow up period.
At the completion of the Week 12 visit of the DB, pivotal Phase 3 study, eligibility of the subjects opting to enroll in this extension study was confirmed. Study visits during the treatment period for all subjects occurred every 4 weeks (±3 days). A phone call was performed at Week 2 (Day 15). Unscheduled visits may have occurred, as needed. Subjects who withdrew from this study before Week 40 returned to the study center for an Early Termination visit. The total duration of this extension study participation was 44 weeks. Subjects in this study were treated as follows based on their PGA score from the Week 12 visit in the DB, pivotal Phase 3 study (Study DMVT 505 3001 or Study DMVT 505 3002).
The PGA was used to assess the primary efficacy endpoint in this study. The PGA is a clinical tool for assessing the current state/severity of a subject's psoriasis at a given time point. It is a static, 5 point, morphological assessment of overall disease severity, as determined by the Investigator, using the clinical characteristics of erythema, scaling, and plaque thickness/elevation as guidelines; higher PGA scores represent more severe disease (0=clear, 1=almost clear, 2=mild, 3=moderate, and 4=severe). The BSA affected was not considered in scoring of the PGA. Variations of the PGA are frequently used in clinical studies because it is a simple assessment, similar to those used in clinical practice. The PGA was performed first, prior to the % BSA, PASI, and LTS assessments.
Time to event parameters, such as the time from treatment success to subsequent worsening (PGA≥2) or duration of treatment episode, were summarized by the Kaplan Meier product limit method using OC.

[1] = Week 16, LOCF, Vehicle (Pivotal) group
[2] = Week 16, OC, Vehicle (Pivotal) group
[3] = Week 16 LOCF, Tapinarof (Pivotal)
[4] = Week 16 LOCF, Vehicle (Pivotal)
[5] = Week 16 OC, Tapinarof (Pivotal)

With `CC(C)c1c(O)cc(/C=C/c2ccccc2)cc1O` [Tapinarof, 3,5-Dihydroxy-4-isopropyl-trans-stilbene] the “Total Duration of Treatment Success, Median” value (ITT, Vehicle (Pivotal) group) was 97.0 days, the “tachyphylaxis (decline of clinical effects over time on treatment)” value (PGA, % BSA, PASI over time) was “not observed” and the “Subjects with PGA=1” value (Week 16, LOCF, Tapinarof (Pivotal) group) was 30.4%. For the same molecule, the “Subjects with PGA=0” value [1] was 12.7%, the “Subjects with PGA=1” value [1] was 25.8% and the “Subjects with PGA=1” value (Week 16, OC, Tapinarof (Pivotal) group) was 32.2%. The “Subjects with PGA=0” value [2] was 12.9%, the “Subjects with PGA=1” value [2] was 28.2% and the “PGA 0 - Clear” value (Week 16 LOCF, Overall) was 121 (16.2) n (%). The “PGA 1 - Almost Clear” value (Week 16 LOCF, Overall) was 215 (28.9) n (%), the “PGA 2 - Mild” value (Week 16 LOCF, Overall) was 279 (37.4) n (%) and the “PGA 3 - Moderate” value (Week 16 LOCF, Overall) was 119 (16.0) n (%). For the same molecule, the “PGA 4 - Severe” value (Week 16 LOCF, Overall) was 11 (1.5) n (%), the “PGA Change from Baseline: Improved by 1” value (Week 16 LOCF, Overall) was 219 (29.5) n (%) and the “PGA Change from Baseline: Improved by 2” value (Week 16 LOCF, Overall) was 91 (12.3) n (%). For the same molecule, the “PGA Change from Baseline: Improved by 3” value (Week 16 LOCF, Overall) was 14 (1.9) n (%), the “PGA Change from Baseline: Improved by 4” value (Week 16 LOCF, Overall) was 2 (0.3) n (%) and the “PGA Change from Baseline: No Change” value (Week 16 LOCF, Overall) was 297 (40.0) n (%). The “PGA Change from Baseline: Worsened by 1” value (Week 16 LOCF, Overall) was 86 (11.6) n (%), the “PGA Change from Baseline: Worsened by 2” value (Week 16 LOCF, Overall) was 28 (3.8) n (%) and the “PGA Change from Baseline: Worsened by 3” value (Week 16 LOCF, Overall) was 5 (0.7) n (%). For the same molecule, the “PGA Change from Baseline: Worsened by 4” value (Week 16 LOCF, Overall) was 0 (0.0) n (%), the “PGA 1 - Almost Clear” value [3] was 150 (30.4) n (%) and the “PGA 2 - Mild” value [3] was 174 (35.3) n (%). For the same molecule, the “PGA 3 - Moderate” value [3] was 74 (15.0) n (%), the “PGA 4 - Severe” value [3] was 6 (1.2) n (%) and the “PGA Change from Baseline: Improved by 1” value [3] was 122 (24.8) n (%). For the same molecule, the “PGA Change from Baseline: Improved by 2” value [3] was 37 (7.5) n (%), the “PGA Change from Baseline: Improved by 3” value [3] was 1 (0.2) n (%) and the “PGA Change from Baseline: Improved by 4” value [3] was 1 (0.2) n (%). For the same molecule, the “PGA Change from Baseline: No Change” value [3] was 223 (45.4) n (%), the “PGA Change from Baseline: Worsened by 1” value [3] was 77 (15.7) n (%) and the “PGA Change from Baseline: Worsened by 2” value [3] was 25 (5.1) n (%). The “PGA Change from Baseline: Worsened by 3” value [3] was 5 (1.0) n (%), the “PGA Change from Baseline: Worsened by 4” value [3] was 0 (0.0) n (%) and the “PGA 0 - Clear” value [4] was 32 (12.7) n (%). The “PGA 1 - Almost Clear” value [4] was 65 (25.8) n (%), the “PGA 3 - Moderate” value [4] was 45 (17.9) n (%) and the “PGA 4 - Severe” value [4] was 5 (2.0) n (%). The “PGA Change from Baseline: Improved by 1” value [4] was 97 (38.6) n (%), the “PGA Change from Baseline: Improved by 2” value [4] was 54 (21.5) n (%) and the “PGA Change from Baseline: Improved by 3” value [4] was 13 (5.2) n (%). The “PGA Change from Baseline: Improved by 4” value [4] was 1 (0.4) n (%), the “PGA Change from Baseline: No Change” value [4] was 74 (29.5) n (%) and the “PGA Change from Baseline: Worsened by 1” value [4] was 9 (3.6) n (%). The “PGA Change from Baseline: Worsened by 2” value [4] was 3 (1.2) n (%), the “PGA Change from Baseline: Worsened by 3” value [4] was 0 (0.0) n (%) and the “PGA Change from Baseline: Worsened by 4” value [4] was 0 (0.0) n (%). The “PGA 0 - Clear” value (Week 16 OC, Overall) was 107 (17.0) n (%), the “PGA 1 - Almost Clear” value (Week 16 OC, Overall) was 194 (30.9) n (%) and the “PGA 2 - Mild” value (Week 16 OC, Overall) was 236 (37.6) n (%). The “PGA 3 - Moderate” value (Week 16 OC, Overall) was 86 (13.7) n (%), the “PGA 4 - Severe” value (Week 16 OC, Overall) was 5 (0.8) n (%) and the “PGA Change from Baseline: Improved by 1” value (Week 16 OC, Overall) was 190 (30.3) n (%). The “PGA Change from Baseline: Improved by 2” value (Week 16 OC, Overall) was 77 (12.3) n (%), the “PGA Change from Baseline: Improved by 3” value (Week 16 OC, Overall) was 13 (2.1) n (%) and the “PGA Change from Baseline: Improved by 4” value (Week 16 OC, Overall) was 2 (0.3) n (%). For the same molecule, the “PGA Change from Baseline: No Change” value (Week 16 OC, Overall) was 246 (39.2) n (%), the “PGA Change from Baseline: Worsened by 1” value (Week 16 OC, Overall) was 69 (11.0) n (%) and the “PGA Change from Baseline: Worsened by 2” value (Week 16 OC, Overall) was 25 (4.0) n (%). The “PGA Change from Baseline: Worsened by 3” value (Week 16 OC, Overall) was 5 (0.8) n (%), the “PGA Change from Baseline: Worsened by 4” value (Week 16 OC, Overall) was 0 (0.0) n (%) and the “PGA 0 - Clear” value [5] was 80 (19.1) n (%). The “PGA 1 - Almost Clear” value [5] was 135 (32.2) n (%), the “PGA 2 - Mild” value [5] was 146 (34.8) n (%) and the “PGA 3 - Moderate” value [5] was 54 (12.9) n (%). The “PGA 4 - Severe” value [5] was 4 (1.0) n (%), the “PGA Change from Baseline: Improved by 1” value [5] was 109 (26.1) n (%) and the “PGA Change from Baseline: Improved by 2” value [5] was 29 (6.9) n (%). For the same molecule, the “PGA Change from Baseline: Improved by 3” value [5] was 1 (0.2) n (%), the “PGA Change from Baseline: Improved by 4” value [5] was 1 (0.2) n (%) and the “PGA Change from Baseline: No Change” value [5] was 187 (44.7) n (%). The “PGA Change from Baseline: Worsened by 2” value [5] was 23 (5.5) n (%), the “PGA Change from Baseline: Worsened by 3” value [5] was 5 (1.2) n (%) and the “PGA Change from Baseline: Worsened by 4” value [5] was 0 (0.0) n (%). The “PGA 0 - Clear” value (Week 16 OC, Vehicle (Pivotal)) was 27 (12.9) n (%), the “PGA 1 - Almost Clear” value (Week 16 OC, Vehicle (Pivotal)) was 59 (28.2) n (%) and the “PGA 2 - Mild” value (Week 16 OC, Vehicle (Pivotal)) was 90 (43.1) n (%). The “PGA 3 - Moderate” value (Week 16 OC, Vehicle (Pivotal)) was 32 (15.3) n (%), the “PGA 4 - Severe” value (Week 16 OC, Vehicle (Pivotal)) was 1 (0.5) n (%) and the “PGA Change from Baseline: Improved by 1” value (Week 16 OC, Vehicle (Pivotal)) was 81 (38.8) n (%). The “PGA Change from Baseline: Improved by 2” value (Week 16 OC, Vehicle (Pivotal)) was 48 (23.0) n (%) and the “PGA Change from Baseline: Improved by 3” value (Week 16 OC, Vehicle (Pivotal)) was 12 (5.7) n (%).
